Measurements reported in US10940150B2, “Thymine derivatives and quinazoline-dione derivatives for the inhibition of HSP27” (TECHNISCHE UNIVERSITAET DRESDEN, priority 2014, dated 2021).

Tests used:
HSP27 = HSP27 (Homo sapiens, UniProt P04792); assay: Capillary electrophoresis of heat-denatured citrate synthase protein precipitates; assay type: biochemical; conditions: for Rel. quantity of protein prec. CS: 10 μmol/L
Procedure: (§1) Since the heat-denatured protein aggregates of the citrate synthase from Example 1 are not water-soluble, these can be separated completely from the supernatant by means of centrifugation at room temperature at 16,000×g, 10 min. By using capillary electrophoresis, the compositions of the separated precipitates can be shown and quantified. The relative quantity of protein of precipitated citrate synthase serves as a measure of the efficacy of the test substances.
(§2) In each case, 481 nmol/L HSP27 and 1.44 μmol/L citrate synthase in 40 mmol/L HEPES buffer, pH 7.4, were employed. The relative quantity of protein of the precipitated citrate synthase in each case was normalized using a defined quantity of BSA as internal standard. The relative quantity of protein that precipitated when using 750 μmol/L BVDU was set at 1. The other test substances (2 representatives of phenothiazine derivatives of general formula (V), 2 representatives of purine derivatives of formula (I) or (II)) were each employed at a concentration of 10 μmol/L.
as §1, with “Example 2” for “Example 1”
as §2, with “nM” for “nmol/L”, “thymine” for “purine”, “were” for “were each”, “μmol/L in each case.” for “μmol/L.”
Otherwise, the experiments were performed as described above: […]

RPMI-8226 cells = assay: Development of resistance to bortezomib in RPMI-8226 cells; assay type: cell-based; conditions: bortezomib 0.075-0.275 ng/ml + 1 μmol/L test substance (FIG. 9a)
[1] = 10 μmol/L vs 750 μmol/L BVDU, 43° C. for 70 minutes (Table 3)
[2] = 43° C. for 70 minutes, relative to 750 μmol/L BVDU = 1 (Table 3)

Chain of HSP27 (P04792 whole entry): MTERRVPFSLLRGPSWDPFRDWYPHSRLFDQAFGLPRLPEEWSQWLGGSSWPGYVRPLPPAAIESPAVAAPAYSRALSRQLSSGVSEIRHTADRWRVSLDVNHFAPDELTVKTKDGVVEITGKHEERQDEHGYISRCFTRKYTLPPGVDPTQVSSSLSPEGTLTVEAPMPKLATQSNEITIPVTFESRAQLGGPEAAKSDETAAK

Row | Efficacy compared with BVDU (HSP27; [1]) [x] | Rel. quantity of protein prec. CS (HSP27; [2]) | Structure (SMILES) | also measured
1 | 48.14 | 0.64 | Cc1cn(C2C[C@H](n3cc(-c4ccc(Br)cc4)nn3)[C@@H](CO)O2)c(=O)[nH]c1=O (stereo partly drawn) [1-[(4S,5S)-4-[4-(4-Bromophenyl)-1,2,3-triazol-1-yl]-5-(hydroxymethyl)oxolan-2-yl]-5-methyl-3H-pyrimidine-2,4-dione] | 
2 | 55.89 | 0.75 | COc1ccc(-c2cn([C@H]3CC(n4cc(C)c(=O)[nH]c4=O)O[C@@H]3CO)nn2)cc1 (stereo partly drawn) [1-[(4S,5S)-5-(Hydroxymethyl)-4-[4-(4-methoxyphenyl)-1,2,3-triazol-1-yl]oxolan-2-yl]-5-methyl-3H-pyrimidine-2,4-dione] | 
3 | 57.08 | 0.76 | CCCCc1cn([C@H]2C[C@H](n3cc(C)c(=O)[nH]c3=O)O[C@@H]2CO)nn1 [3′-(4-Butyl-1H-1,2,3-triazol-1-yl)-3′-deoxythymidine] | 
4 | 52.57 | 0.70 | CCCCCc1cn([C@H]2C[C@H](n3cc(C)c(=O)[nH]c3=O)O[C@@H]2CO)nn1 [3′-Deoxy-3′-(4-pentyl-1H-1,2,3-triazol-1-yl)thymidine] | 
5 | 59.07 | 0.79 | Cc1cn([C@H]2C[C@H](n3cc(-c4ccccc4)nn3)[C@@H](CO)O2)c(=O)[nH]c1=O [3′-Deoxy-3′-(4-phenyl-1H-1,2,3-triazol-1-yl)thymidine] | 
6 | 59.59 | 0.79 | CCCc1cn([C@H]2C[C@H](n3cc(C)c(=O)[nH]c3=O)O[C@@H]2CO)nn1 [3′-Deoxy-3′-(4-propyl-1H-1,2,3-triazol-1-yl)thymidine] | 
7 | 55.67 | 0.74 | Cc1cn([C@H]2C[C@H](n3cc(CCc4ccccc4)nn3)[C@@H](CO)O2)c(=O)[nH]c1=O [3′-Deoxy-3′-[4-(2-phenylethyl)-1H-1,2,3-triazol-1-yl]-thymidine] | 
8 | 58.97 | 0.79 | Cc1cn(CCCCNC(=O)C(c2ccccc2)c2ccccc2)c(=O)[nH]c1=O [N-[4-(5-Methyl-2,4-dioxo-3H-pyrimidin-1-yl)butyl]-2,2-diphenylacetamide] | 
9 | 56.36 | 0.75 | Cc1cn(CCCCNC(=O)Cc2ccc3ccccc3c2)c(=O)[nH]c1=O [N-[4-(5-Methyl-2,4-dioxo-3H-pyrimidin-1-yl)butyl]-2-(naphthalen-2-yl)acetamide] | 
10 | 43.30 | 0.58 | Cc1cn(CCCCNC(=O)C2c3ccccc3-c3ccccc32)c(=O)[nH]c1=O [N-[4-(5-Methyl-2,4-dioxo-3H-pyrimidin-1-yl)butyl]-9H-fluorene-9-carboxamide] | 
11 | 51.16 | 0.68 | Cc1cn(CCCCNC(=O)C2c3ccccc3Oc3ccccc32)c(=O)[nH]c1=O [N-[4-(5-Methyl-2,4-dioxo-3H-pyrimidin-1-yl)butyl]-9H-xanthene-9-carboxamide] | 
12 | 86.25 | 1.15 | O=C(Cc1ccc2ccccc2c1)NC/C=C\Cn1ccc(=O)[nH]c1=O [N-[(2Z)-4-(2,4-Dioxo-3H-pyrimidin-1-yl)but-2-en-1-yl]-2-(naphthalen-2-yl)acetamide] | 
13 | 63.38 | 0.85 | O=C(NC/C=C\Cn1ccc(=O)[nH]c1=O)C1c2ccccc2OC2C=CC=CC21 (stereo not drawn) [N-[(2Z)-4-(2,4-Dioxo-3H-pyrimidin-1-yl)but-2-en-1-yl]-9,9a-dihydro-4aH-xanthene-9-carboxamide] | 
14 | 60.44 | 0.81 | Cc1cn(C/C=C\CNC(=O)Cc2cccc3ccccc23)c(=O)[nH]c1=O [N-[(2Z)-4-(5-Methyl-2,4-dioxo-3H-pyrimidin-1-yl)but-2-en-1-yl]-2-(naphthalen-1-yl)acetamide] | 
15 | 64.31 | 0.86 | Cc1cn(C/C=C\CNC(=O)C2c3ccccc3-c3ccccc32)c(=O)[nH]c1=O [N-[(2Z)-4-(5-Methyl-2,4-dioxo-3H-pyrimidin-1-yl)but-2-en-1-yl]-9H-fluorene-9-carboxamide] | 
16 | 58.73 | 0.78 | Cc1cn(C/C=C\CNC(=O)c2cccc3ccccc23)c(=O)[nH]c1=O [N-[(2Z)-4-(5-Methyl-2,4-dioxo-3H-pyrimidin-1-yl)but-2-en-1-yl]naphthalene-1-carboxamide] | 

The next lines start with the compound.

Row | Structure (SMILES) | Efficacy compared with BVDU (HSP27; [1]) [x] | Rel. quantity of protein prec. CS (HSP27; [2]) | also measured
17 | Cc1cn(C2C[C@H](n3cc(-c4cccc(Br)c4)nn3)[C@@H](CO)O2)c(=O)[nH]c1=O (stereo partly drawn) [1-[(4S,5S)-4-[4-(3-Bromophenyl)-1H-1,2,3-triazol-1-yl]-5-(hydroxymethyl)oxolan-2-yl]-5-methyl-1,2,3,4-tetrahydropyrimidine-2,4-dione] | 60.88 | 0.81 | 
18 | Cc1cn(CC=CCNC(=O)Cc2ccc(-c3ccccc3)cc2)c(=O)[nH]c1=O [2-biphenyl-4-yl-N-[4-(5-methyl-2,4-dioxo-3,4-dihydro-2H-pyrimidin-1-yl)-but-2-enyl]-acetamide] |  |  | development of resistance to the cytostatic agent bortezomib (RPMI-8226 cells): significantly inhibited; living cells at the end of the experiment (RPMI-8226 cells; without HSP27 inhibitor 510,000 cells/ml): 380,000 living cells per ml medium; times higher activity than BVDU for the inhibition of the HSP27 protein (HSP27; 10 μmol/L vs 750 μmol/L BVDU, 43° C. for 120 minutes): 61 times; Efficacy compared with BVDU (HSP27; 10 μmol/L vs 750 μmol/L BVDU, 43° C. for 120 minutes (Table 2)): 60.75 x; Rel. quantity of protein prec. CS (HSP27; 43° C. for 120 minutes, relative to 750 μmol/L BVDU = 1 (Table 2)): 0.81; BVDU equivalent dose (HSP27; based on 100 mg BVDU): 1.6 mg
19 | Cc1cn([C@H]2C[C@H](n3cc(C(C)(C)C)nn3)[C@@H](CO)O2)c(=O)[nH]c1=O [3′-Deoxy-3′-[4-(2-methyl-2-propanyl)-1H-1,2,3-triazol-1-yl]thymidine] | 46.01 | 0.61 | 
20 | Cc1cn([C@H]2C[C@H](n3cc(-c4ccccn4)nn3)[C@@H](CO)O2)c(=O)[nH]c1=O [3′-Deoxy-3′-[4-(2-pyridinyl)-1H-1,2,3-triazol-1]-yl]thymidine] | 62.86 | 0.84 | 
21 | Cc1cn([C@H]2C[C@H](n3cc(-c4ccc(Cl)c(Cl)c4)nn3)[C@@H](CO)O2)c(=O)[nH]c1=O [3′-Deoxy-3′-[4-(3,4-dichlorophenyl)-1H-1,2,3-triazol-1-yl]-thymidine] | 64.21 | 0.86 | 
22 | Cc1cn([C@H]2C[C@H](n3cc(-c4ccc(F)cc4)nn3)[C@@H](CO)O2)c(=O)[nH]c1=O [3′-Deoxy-3′-[4-(4-fluorophenyl)-1H-1,2,3-triazol-1-yl]-thymidine] | 49.69 | 0.66 | 
23 | Cc1cn([C@H]2C[C@H](n3cc(-c4ccc(Cl)cc4)nn3)[C@@H](CO)O2)c(=O)[nH]c1=O [3′-[4-(4-Chlorophenyl)-1H-1,2,3-triazol-1-yl]-3′-deoxythymidine] | 50.53 | 0.67 | 
24 | Cc1cn([C@H]2C[C@H](n3cc(CC4CCCC4)nn3)[C@@H](CO)O2)c(=O)[nH]c1=O [3′-[4-(Cyclopentylmethyl)-1H-1,2,3-triazol-1-yl]-3′-deoxythymidine] | 49.63 | 0.66 | 
25 | Cc1cn(CCCCNC(=O)Cc2ccc(-c3ccccc3)cc2)c(=O)[nH]c1=O [N-[4-(5-Methyl-2,4-dioxo-3H-pyrimidin-1-yl)butyl]-2-(4-phenylphenyl)acetamide] | 50.52 | 0.67 | 
26 | O=C(Cc1ccc(-c2ccccc2)cc1)NC/C=C\Cn1ccc(=O)[nH]c1=O [N-[(2Z)-4-(2,4-Dioxo-3H-pyrimidin-1-yl)but-2-en-1-yl]-2-(4-phenylphenyl)acetamide] | 66.15 | 0.88 | 
27 | Cc1cn(C/C=C\CNC(=O)C(c2ccccc2)c2ccccc2)c(=O)[nH]c1=O [N-[(2Z)-4-(5-Methyl-2,4-dioxo-3H-pyrimidin-1-yl)but-2-en-1-yl]-2,2-diphenylacetamide] | 61.19 | 0.82 | 
28 | Cc1cn(C/C=C\CNC(=O)Cc2ccc3ccccc3c2)c(=O)[nH]c1=O [N-[(2Z)-4-(5-Methyl-2,4-dioxo-3H-pyrimidin-1-yl)but-2-en-1-yl]-2-(naphthalen-2-yl)acetamide] | 62.51 | 0.83 | 
